Assays:
[1] = Survival of human MDA-MB cells at 10 uM under deem light after 96 hrs by MTT assay relative to control; format: functional; settings: read-out: Survival
[2] = Cytotoxicity against human MDA-MB cells under deem light after 96 hrs by MTT assay; format: functional, cell-based
NCI-H69 [3] = assay: Survival of human H69 cells at 1 uM under deem light after 96 hrs by MTT assay relative to control; format: functional; settings: NCI-H69, 96 h, read-out: Survival
SiHa [4] = assay: Survival of human SIHA cells at 10 uM under deem light after 96 hrs by MTT assay relative to control; format: functional; settings: read-out: Survival
[5] = Photohemolysis in human RBC in absence of light; format: ADME, cell-based; settings: erythrocyte
[6] = Survival of human 2780.9S cells at 1 uM under deem light after 96 hrs by MTT assay relative to control; format: functional; settings: read-out: Survival
K562 [7] = assay: Survival of human K562 cells at 1 uM under deem light after 96 hrs by MTT assay relative to control; format: functional; settings: K562, 96 h, read-out: Survival
[8] = Survival of human H209 cells at 0.1 uM under deem light after 96 hrs by MTT assay relative to control; format: functional; settings: NCI-H209, 96 h, read-out: Survival
[9] = Survival of human MDA-MB cells at 0.1 uM under deem light after 96 hrs by MTT assay relative to control; format: functional; settings: read-out: Survival
SiHa [10] = assay: Survival of human SIHA cells at 50 uM under deem light after 96 hrs by MTT assay relative to control; format: functional; settings: read-out: Survival
K562 [11] = assay: Survival of human K562 cells at 100 uM under deem light after 96 hrs by MTT assay relative to control; format: functional; settings: K562, 96 h, read-out: Survival
Raji [12] = assay: Survival of human Raji cells at 50 uM under deem light after 96 hrs by MTT assay relative to control; format: functional; settings: read-out: Survival
Raji [13] = assay: Survival of human Raji cells at 0.1 uM under deem light after 96 hrs by MTT assay relative to control; format: functional; settings: read-out: Survival
[14] = Survival of human H209 cells at 10 uM under deem light after 96 hrs by MTT assay relative to control; format: functional; settings: NCI-H209, 96 h, read-out: Survival
SiHa [15] = assay: Survival of human SIHA cells at 1 uM under deem light after 96 hrs by MTT assay relative to control; format: functional; settings: read-out: Survival
[16] = Survival of human 2780.9S cells at 10 uM under deem light after 96 hrs by MTT assay relative to control; format: functional; settings: read-out: Survival
HeLa [17] = assay: Cytotoxicity against human HeLa cells under deem light after 96 hrs by MTT assay; format: functional, cell-based
[18] = Survival of human MDA-MB cells at 1 uM under deem light after 96 hrs by MTT assay relative to control; format: functional; settings: read-out: Survival
[19] = Survival of human MDA-MB cells at 100 uM under deem light after 96 hrs by MTT assay relative to control; format: functional; settings: read-out: Survival
NCI-H69 [20] = assay: Survival of human H69 cells at 10 uM under deem light after 96 hrs by MTT assay relative to control; format: functional; settings: NCI-H69, 96 h, read-out: Survival
Raji [21] = assay: Survival of human Raji cells at 100 uM under deem light after 96 hrs by MTT assay relative to control; format: functional; settings: read-out: Survival
[22] = Survival of human MDA-MB cells at 50 uM under deem light after 96 hrs by MTT assay relative to control; format: functional; settings: read-out: Survival
[23] = Survival of human H209 cells at 1 uM under deem light after 96 hrs by MTT assay relative to control; format: functional; settings: NCI-H209, 96 h, read-out: Survival
HeLa [24] = assay: Survival of human HeLa cells at 100 uM under deem light after 96 hrs by MTT assay relative to control; format: functional; settings: read-out: Survival
HeLa [25] = assay: Survival of human HeLa cells at 10 uM under deem light after 96 hrs by MTT assay relative to control; format: functional; settings: read-out: Survival
HeLa [26] = assay: Survival of human HeLa cells at 50 uM under deem light after 96 hrs by MTT assay relative to control; format: functional; settings: read-out: Survival
NCI-H69 [27] = assay: Survival of human H69 cells at 0.1 uM under deem light after 96 hrs by MTT assay relative to control; format: functional; settings: NCI-H69, 96 h, read-out: Survival
HeLa [28] = assay: Survival of human HeLa cells at 0.1 uM under deem light after 96 hrs by MTT assay relative to control; format: functional; settings: read-out: Survival
Raji [29] = assay: Cytotoxicity against human Raji cells under deem light after 96 hrs by MTT assay; format: functional, cell-based
K562 [30] = assay: Cytotoxicity against human K562 cells under deem light after 96 hrs by MTT assay; format: functional, cell-based; settings: K562, 96 h
K562 [31] = assay: Survival of human K562 cells at 50 uM under deem light after 96 hrs by MTT assay relative to control; format: functional; settings: K562, 96 h, read-out: Survival
Raji [32] = assay: Survival of human Raji cells at 1 uM under deem light after 96 hrs by MTT assay relative to control; format: functional; settings: read-out: Survival
[33] = Survival of human H209 cells at 100 uM under deem light after 96 hrs by MTT assay relative to control; format: functional; settings: NCI-H209, 96 h, read-out: Survival
HeLa [34] = assay: Survival of human HeLa cells at 1 uM under deem light after 96 hrs by MTT assay relative to control; format: functional; settings: read-out: Survival
K562 [35] = assay: Survival of human K562 cells at 0.1 uM under deem light after 96 hrs by MTT assay relative to control; format: functional; settings: K562, 96 h, read-out: Survival
K562 [36] = assay: Survival of human K562 cells at 10 uM under deem light after 96 hrs by MTT assay relative to control; format: functional; settings: K562, 96 h, read-out: Survival
SiHa [37] = assay: Cytotoxicity against human SIHA cells under deem light after 96 hrs by MTT assay; format: functional, cell-based
SiHa [38] = assay: Survival of human SIHA cells at 100 uM under deem light after 96 hrs by MTT assay relative to control; format: functional; settings: read-out: Survival
NCI-H69 [39] = assay: Cytotoxicity against human H69 cells under deem light after 96 hrs by MTT assay; format: functional, cell-based; settings: NCI-H69, 96 h
[40] = Survival of human 2780.9S cells at 0.1 uM under deem light after 96 hrs by MTT assay relative to control; format: functional; settings: read-out: Survival
NCI-H69 [41] = assay: Survival of human H69 cells at 100 uM under deem light after 96 hrs by MTT assay relative to control; format: functional; settings: NCI-H69, 96 h, read-out: Survival
NCI-H69 [42] = assay: Survival of human H69 cells at 50 uM under deem light after 96 hrs by MTT assay relative to control; format: functional; settings: NCI-H69, 96 h, read-out: Survival
[43] = Photohemolysis in human RBC assessed as concentration required to 50% hemolysis under light exposure for 5 mins; format: ADME, cell-based, Erythrocyte; settings: human red blood cells, read-out: Activity
[44] = Survival of human 2780.9S cells at 50 uM under deem light after 96 hrs by MTT assay relative to control; format: functional; settings: read-out: Survival
[45] = Survival of human 2780.9S cells at 100 uM under deem light after 96 hrs by MTT assay relative to control; format: functional; settings: read-out: Survival
[46] = Photohemolysis in human RBC assessed as concentration required to 50% hemolysis under light exposure for 10 mins; format: ADME, cell-based, Erythrocyte; settings: human red blood cells, read-out: Activity
Daudi = assay: Cytotoxicity against human Daudi cells under deem light after 96 hrs by MTT assay; format: functional, cell-based
[47] = Cytotoxicity against human 2780.9S cells under deem light after 96 hrs by MTT assay; format: functional, cell-based
[48] = Photohemolysis in human RBC at 520 nM under exposure to light for 10 mins; format: ADME, cell-based, Erythrocyte; settings: human red blood cells, read-out: Activity
[49] = Survival of human H209 cells at 50 uM under deem light after 96 hrs by MTT assay relative to control; format: functional; settings: NCI-H209, 96 h, read-out: Survival
Raji [50] = assay: Survival of human Raji cells at 10 uM under deem light after 96 hrs by MTT assay relative to control; format: functional; settings: read-out: Survival

C=Cc1c(C)c2cc3nc(c4c5[nH]c(cc6nc(cc1[nH]2)C(C)=C6CC)c(C)c5C(=O)[C@@H]4C(=O)OC)[C@@H](CCC(=O)OC)[C@@H]3C [METHYL PHEOPHORBIDE A]
viability at 10 µM [1]: 103% | IC50 [2]: > 100 µM | viability at 1 µM (NCI-H69 [3]): 84.3% | viability at 10 µM (SiHa [4]): 90.8% | Activity [5]: Non-toxic | viability at 1 µM [6]: 94.9% | viability at 1 µM (K562 [7]): 93.3% | viability at 0.1 µM [8]: 83.6% | viability at 0.1 µM [9]: 128% | viability at 50 µM (SiHa [10]): 81% | viability at 100 µM (K562 [11]): 106% | viability at 50 µM (Raji [12]): 106% | viability at 0.1 µM (Raji [13]): 92.9% | viability at 10 µM [14]: 91.7% | viability at 1 µM (SiHa [15]): 98% | viability at 10 µM [16]: 93.4% | IC50 (HeLa [17]): 25 µM | viability at 1 µM [18]: 115% | viability at 100 µM [19]: 68.9% | viability at 10 µM (NCI-H69 [20]): 79% | viability at 100 µM (Raji [21]): 94.3% | viability at 50 µM [22]: 101% | viability at 1 µM [23]: 90.2% | viability at 100 µM (HeLa [24]): 36.7% | viability at 10 µM (HeLa [25]): 72.1% | viability at 50 µM (HeLa [26]): 48.7% | viability at 0.1 µM (NCI-H69 [27]): 70.7% | viability at 0.1 µM (HeLa [28]): 89.1% | IC50 (Raji [29]): > 100 µM | IC50 (K562 [30]): > 100 µM | viability at 50 µM (K562 [31]): 97.3% | viability at 1 µM (Raji [32]): 102% | viability at 100 µM [33]: 82.3% | viability at 1 µM (HeLa [34]): 77.4% | viability at 0.1 µM (K562 [35]): 86% | viability at 10 µM (K562 [36]): 97.3% | IC50 (SiHa [37]): > 100 µM | viability at 100 µM (SiHa [38]): 68% | IC50 (NCI-H69 [39]): > 100 µM | viability at 0.1 µM [40]: 100% | viability at 100 µM (NCI-H69 [41]): 63.6% | viability at 50 µM (NCI-H69 [42]): 76.7% | HC50 at 5 min [43]: > 525 nM | viability at 50 µM [44]: 90.1% | viability at 100 µM [45]: 83.2% | HC50 at 10 min [46]: > 525 nM | IC50 (Daudi): 25 µM | IC50 [47]: > 100 µM | hemolysis at 10 min, 0.52 µM [48]: 18% | viability at 50 µM [49]: 85.2% | viability at 10 µM (Raji [50]): 107%

— ChEMBL document CHEMBL1141575, “Preparation and in vitro biological evaluation of tetrapyrrole ethanolamide derivatives as potential anticancer agents” (Bioorg Med Chem Lett, 2008)
